Assay results published in the NIST ThermoML archive (doi:10.1016/j.tca.2005.08.007).
Numbers after ± are expanded uncertainties.

Test: xn = mol fraction of the nth substance listed
Settings: 298.15 K, 101 kPa, Liquid; for viscosity: Capillary tube (Ostwald / Ubbelohde) method; for mass density: Vibrating tube method

C1CCCCC1 [cyclohexane] + CCCCCC
Settings | mass density [kg/m3] | viscosity [mPa·s]
x1 = 0.0397 | 655.8 ± 0.39 | 0.2833 ± 0.0033
x1 = 0.2011 | 674.91 ± 0.37 | 0.3282 ± 0.0037
x1 = 0.2776 | 683.97 ± 0.36 | 0.3485 ± 0.0038
x1 = 0.3617 | 693.92 ± 0.35 | 0.3778 ± 0.004
x1 = 0.4409 | 703.31 ± 0.34 | 0.4077 ± 0.0042
x1 = 0.5889 | 720.83 ± 0.32 | 0.4815 ± 0.0048
x1 = 0.6848 | 732.18 ± 0.3 | 0.5355 ± 0.0052
x1 = 0.7608 | 741.18 ± 0.29 | 0.5994 ± 0.0057
x1 = 0.8074 | 746.7 ± 0.28 | 0.6444 ± 0.006
x1 = 0.9205 | 760.09 ± 0.27 | 0.7507 ± 0.0068

C1CCCCC1 [cyclohexane] + Cc1ccccc1
Settings | mass density [kg/m3] | viscosity [mPa·s]
x2 = 0.0721 | 777.43 ± 0.26 | 0.8574 ± 0.0077
x2 = 0.1813 | 784.63 ± 0.28 | 0.7693 ± 0.007
x2 = 0.2798 | 791.6 ± 0.3 | 0.7024 ± 0.0065
x2 = 0.3613 | 799.02 ± 0.31 | 0.651 ± 0.0062
x2 = 0.4416 | 806 ± 0.33 | 0.6116 ± 0.0059
x2 = 0.6003 | 820.17 ± 0.36 | 0.5532 ± 0.0055
x2 = 0.6784 | 827.33 ± 0.38 | 0.5329 ± 0.0053
x2 = 0.7615 | 834.61 ± 0.39 | 0.5181 ± 0.0053
x2 = 0.8396 | 843.41 ± 0.41 | 0.5029 ± 0.0052
x2 = 0.9202 | 853.16 ± 0.43 | 0.4976 ± 0.0052

CCCCCC [hexane] + Cc1ccccc1
Settings | mass density [kg/m3] | viscosity [mPa·s]
x2 = 0.0406 | 657.47 ± 0.4 | 0.2774 ± 0.0033
x2 = 0.2028 | 690.93 ± 0.4 | 0.3073 ± 0.0035
x2 = 0.2804 | 706.95 ± 0.41 | 0.3185 ± 0.0036
x2 = 0.3596 | 723.29 ± 0.42 | 0.3272 ± 0.0037
x2 = 0.4423 | 740.35 ± 0.42 | 0.3421 ± 0.0038
x2 = 0.5997 | 772.81 ± 0.43 | 0.3812 ± 0.0042
x2 = 0.6757 | 788.5 ± 0.43 | 0.4028 ± 0.0044
x2 = 0.7597 | 805.83 ± 0.43 | 0.43 ± 0.0046
x2 = 0.8412 | 822.63 ± 0.44 | 0.4644 ± 0.0049
x2 = 0.9199 | 838.87 ± 0.44 | 0.499 ± 0.0052
